# Test results reported in US9605064B2, “Methods and compositions for treatment of skin disorders” (AbbVie Biotechnology Ltd, priority 2006, dated 2017).
# Columns and labels:
# [1] = system: patients with moderate to severe chronic plaque psoriasis; test: PASI response, CHAMPION 16-week Phase III trial vs methotrexate and placebo; assay type: in vivo, human; settings: ITT; for PASI 75 Response Rates, % Patients / PASI 90 Response Rates, % Patients: missing PASI = non-responder
# Protocol: (§1) Analytical methods included the following: • Intention-to-treat analyses were performed for all randomized patients • Missing data were analyzed using non-responder imputation (NRI) • PASI 75 at Week 16 (primary endpoint) was analyzed using adjusted Cochran-Mantel-Haenszel test.
# [2] = system: patients with moderate to severe chronic plaque psoriasis; test: PGA, CHAMPION 16-week Phase III trial; assay type: in vivo, human; settings: ITT, missing PGA = not achieving
# Protocol: as §1
# [3] = system: patients with moderate to severe chronic plaque psoriasis; test: PASI response, open-label extension of CHAMPION (methotrexate to adalimumab transition); assay type: in vivo, human; settings: prior to starting adalimumab, after 16 weeks of methotrexate in CHAMPION; 95 patients
# [4] = system: patients with moderate to severe chronic plaque psoriasis; settings: human, in vivo, 16 weeks
# From the text: (§2) The study was a multi-center, 16-week, randomized controlled Phase III trial. The main inclusion criteria included: • Clinical diagnosis of psoriasis for ≧1 year • Affected body surface area (BSA)≧10% • Psoriasis Area and Severity Index (PASI)≧10 The main exclusion criteria was previous use of MTX or systemic anti-TNF therapy.
# [5] = system: patients with moderate to severe chronic plaque psoriasis; test: Adverse events, CHAMPION 16-week Phase III trial; settings: 16-week study
# From the text: as §2
# [6] = MTX N = 110, Adalimumab N = 107
compound,measurement,setting,value
"CN(Cc1cnc2nc(N)nc(N)c2n1)c1ccc(C(=O)N[C@@H](CCC(=O)O)C(=O)O)cc1 [methotrexate, reference compound]","PASI 75 Response Rates, % Patients",[1]; Week 4,3%
same,"PASI 90 Response Rates, % Patients",[1]; Week 4,1%
same,"PASI 75 Response Rates, % Patients",[1]; Week 8,9%
same,"PASI 90 Response Rates, % Patients",[1]; Week 8,3%
same,"PASI 75 Response Rates, % Patients",[1]; Week 12,25%
same,"PASI 90 Response Rates, % Patients",[1]; Week 12,9%
same,PASI 75,"[1]; Week 16, NRI",36%
same,"PASI 75 Response Rates, % Patients",[1]; Week 16,36%
same,"PASI 90 Response Rates, % Patients",[1]; Week 16,14%
same,"PASI 75 Response Rates, % Patients","[1]; Week 16, listed as MTX",35.5%
same,"PASI 90 Response Rates, % Patients","[1]; Week 16, listed as MTX",13.6%
same,PASI 50 response rate,"[1]; Week 16 of CHAMPION, NRI",61.8%
same,PASI 100 response rate,"[1]; Week 16 of CHAMPION, NRI",7.3%
same,"PGA “Clear” or “Minimal” Responses, % Patients",[2]; Week 4,1%
same,"PGA “Clear” or “Minimal” Responses, % Patients",[2]; Week 8,3%
same,"PGA “Clear” or “Minimal” Responses, % Patients",[2]; Week 12,9%
same,"PGA “Clear” or “Minimal” Responses, % Patients",[2]; Week 16,14%
same,PASI 75 response rate,[3],28%
same,PASI 90 response rate,[3],14%
same,PASI 100 response rate,[3],5%
same,Viral Infection,[4],6 (6) n (%)
same,Any AE,[5]; [6],89 (81) n (%)
same,Any AE leading to discontinuation,[5]; [6],6 (6) n (%)
same,Any SAE,[5]; [6],1 (1) n (%)
same,Any infectious AE,[5]; [6],46 (42) n (%)
same,Any infectious SAE,[5]; [6],0 (0) n (%)
same,Arthralgia,[5]; common AE in ≧5% of patients,5 (5) n (%)
same,Gamma-Glutamyltransferase Increased,[5]; common AE in ≧5% of patients,0 (0) n (%)
same,Headache,[5]; common AE in ≧5% of patients,12 (11) n (%)
same,Nasopharyngitis,[5]; common AE in ≧5% of patients,26 (24) n (%)
same,Nausea,[5]; common AE in ≧5% of patients,8 (7) n (%)
same,Pruritus,[5]; common AE in ≧5% of patients,2 (2) n (%)
same,Rhinitis,[5]; common AE in ≧5% of patients,4 (4) n (%)
same,Rhinorrhea,[5]; common AE in ≧5% of patients,0 (0) n (%)
